In patent US4876279A, “Antihypercholesterolemic compounds” (Merck & Co., Inc., priority 1988, dated 1989):

System: HMG-CoA reductase
Experiment: HMG-CoA Reductase Inhibition Assay (in vitro)
Assay type: biochemical, rat
Settings: relative to compactin, arbitrarily assigned a value of 100; IC50 compared with that of compactin determined simultaneously; tested as sodium salt of dihydroxy acid form
Description: The intrinsic HMG-CoA reductase inhibition activity of the claimed compounds is measured in the in vitro protocol published in J. Med. Chem., 28, P. 347-358 (1985) and described below:
Isolation of HMG-CoA Reductase. Male Holtzman Sprague-Dawley rate (225-250 g) were kept on reversed lighting and fed Purina rat chow containing 3% cholestyramine for 7 days preceding their sacrifice by CO2 asphyxiation. Livers were removed 6 hours into the dark cycle and used immediately to prepare microsomes. […]
Test compounds or compactin (after first being converted to the sodium salt of their dihydroxy acid form in situ by addition of 1 N NaOH (1 equiv)) were added to the assay system in 10-μL volumes at multiconcentration levels. […] Five milliliters of Aquasol-2 (New England Nuclear) was added to each vial, and radioactivity was measured in a Packard Tri Carb Prias scintillation counter. IC50 values were determined by plotting percentage inhibition against test compounds concentration and fitting a straight line to the resulting data by using the least-squares method. For estimation of relative inhibitory potencies, compactin was assigned a value of 100 and the IC50 value of the test compound was compared with that of compactin determined simultaneously.

Row | Relative Potency | Substance
1 | 65 | 6(R)-[2-8(S)-(1-Ethoxycarbonylcyclobutanecarbonyloxy)-2(S),6(R)-dimethyl-1,2,6,7,8,8a-(R)-hexahydronaphthyl-1(S)]ethyl]-4(R)-hydroxy-3,4,5,6-tetrahydro-2H-pyrane-2-one
2 | 11 | 6(R)-[2-[8(S)-(1-Ethoxycarbonylcyclopropanecarbonyloxy)-2(S),6(R)-dimethyl-1,2,6,7,8,8a (R)-hexahydronaphthyl-1(S)]ethyl]-4(R)-hydroxy-3,4,5,6-tetrahydro-2H-pyran-2-one
